Data reported in patent US20120010205A1, “NOVEL QUINOLINE ESTERS USEFUL FOR TREATING SKIN DISORDERS” (Wyeth LLC, priority 2010, published 2012).

Tests used:
human LXRβ = target: T1, human LXRβ (Homo sapiens, UniProt P55055); test: Ligand-binding test procedure for human LXRβ (3H T0901317 tracer, flash plates); conditions: read-out: hLXRb binding IC50
T1 construct: made in house; host or cells: E. coli
T1 sequence (P55055 1-460): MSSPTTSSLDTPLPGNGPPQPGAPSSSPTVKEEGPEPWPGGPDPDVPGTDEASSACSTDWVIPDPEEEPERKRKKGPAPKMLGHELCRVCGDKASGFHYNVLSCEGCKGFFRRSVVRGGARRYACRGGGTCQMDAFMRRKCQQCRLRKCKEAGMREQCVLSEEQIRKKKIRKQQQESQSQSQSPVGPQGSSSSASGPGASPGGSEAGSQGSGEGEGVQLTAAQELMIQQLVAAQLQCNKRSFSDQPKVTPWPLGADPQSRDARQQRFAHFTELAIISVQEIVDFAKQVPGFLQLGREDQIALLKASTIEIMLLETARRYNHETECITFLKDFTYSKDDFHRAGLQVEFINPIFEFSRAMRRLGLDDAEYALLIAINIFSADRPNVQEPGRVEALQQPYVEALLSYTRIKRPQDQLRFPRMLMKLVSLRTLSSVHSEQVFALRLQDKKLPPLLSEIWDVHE
Procedure: LIGAND-BINDING TEST PROCEDURE FOR HUMAN LXRβ.
Buffer: 100 mM KCl, 100 mM TRIS (pH 7.4 at +4° C.), 8.6% glycerol, 0.1 mM PMSF*, 2 mM MTG*, 0.2% CHAPS (* not used in wash buffer)
Receptor source: E. coli extracted from cells expressing biotinylated hLXRβ. Extract was made in a similar buffer as above, but with 50 mM TRIS.
Washed streptavidin and coated flash plates with wash buffer. Diluted receptor extract to give Bmax˜4000 cpm and add to the wells. Wrapped the plates in aluminum foil and stored them at +4° C. overnight.
Made a dilution series in DMSO of the test ligands. Made a 5 nM solution of the radioactive tracer in buffer. Mixed 250 μL diluted tracer with 5 μL of the test ligand from each concentration of the dilution series. Washed the receptor-coated flash plates. Added 200 μL per well of the ligand/radiolabel mixture to the receptor-coated flash plates. Wrapped the plates in aluminum foil and incubate at +4° C. over night.
Aspirated wells, and washed the flashed plates. Sealed the plate. Measured the remaining radioactivity in the plate.

ABCG1 [1] = test: Gene regulation by LXR: ABCG1, KERTr (serum-free); assay type: cell-based
ABCG1 [2] = test: Gene regulation by LXR: ABCG1, human foreskin fibroblasts (serum-free); assay type: cell-based
hLXRa = target: T2, hLXRa (Homo sapiens, UniProt Q13133); test: hLXRa binding
T2 sequence (Q13133 1-447): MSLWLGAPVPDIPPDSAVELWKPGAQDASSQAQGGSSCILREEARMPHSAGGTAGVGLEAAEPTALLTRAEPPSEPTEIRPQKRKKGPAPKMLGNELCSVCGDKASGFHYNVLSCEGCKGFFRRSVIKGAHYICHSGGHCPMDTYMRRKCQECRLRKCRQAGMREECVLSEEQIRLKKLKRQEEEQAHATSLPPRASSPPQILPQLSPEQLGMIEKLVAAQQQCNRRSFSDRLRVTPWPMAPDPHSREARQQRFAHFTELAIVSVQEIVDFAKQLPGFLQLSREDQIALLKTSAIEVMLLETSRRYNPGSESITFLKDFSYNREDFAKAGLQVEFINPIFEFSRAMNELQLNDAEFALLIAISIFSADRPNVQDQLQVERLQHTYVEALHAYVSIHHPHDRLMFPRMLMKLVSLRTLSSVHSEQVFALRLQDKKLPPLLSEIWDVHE

IC50 (human LXRβ) [nM]	EC50 (ABCG1 [1]) [nM]	IC50 (hLXRa) [nM]	SMILES	EC50 (ABCG1 [2]) [nM]	EC50 (ABCG1 [2]; Fibroblast) [nM]
35	99	140	Cc1ccc(S(C)(=O)=O)cc1C(=O)Oc1cccc(-c2c(C)cnc3c(C(F)(F)F)cccc23)c1 [Example 27, 3-[3-methyl-8-(trifluormethyl)quinolin-4-yl]phenyl 2-methyl-5-(methylsulfonyl)benzoate]	25	
19	214	105	Cc1cnc2c(C(F)(F)F)cccc2c1-c1cccc(OC(=O)c2cc(S(C)(=O)=O)ccc2Cl)c1 [Example 28, 3-[3-methyl-8-(trifluoromethyl)quinolin-4-yl]phenyl 2-chloro-5-(methylsulfonyl)benzoate]		67
34	167	154	Cc1cnc2c(C(F)(F)F)cccc2c1-c1cccc(OC(=O)c2ccc(S(C)(=O)=O)cc2)c1 [Example 29, 3-[3-methyl-8-(trifluoromethyl)quinolin-4-yl]phenyl 4-(methylsulfonyl)benzoate]		250
235	137	445	Cc1ccc(S(=O)(=O)N(C)C)cc1C(=O)Oc1cccc(-c2c(C)cnc3c(C(F)(F)F)cccc23)c1 [Example 30, 3-[3-methyl-8-(trifluoromethyl)quinolin-4-yl]phenyl 5-(dimethylsulfamoyl)-2-methylbenzoate]		162
3	2.86	7.9	CCS(=O)(=O)c1cccc(C(=O)Oc2cccc(-c3c(-c4ccccc4)cnc4c(Cl)cccc34)c2)c1 [Example 32, 3-(8-chloro-3-phenylquinolin-4-yl)phenyl 3-(ethylsulfonyl)benzoate]		6.8
4.7	8.3	15	CC(C)c1cnc2c(Cl)cccc2c1-c1cccc(OC(=O)c2cccc(S(=O)(=O)N(C)C)c2)c1 [Example 33, 3-(8-chloro-3-isopropylauinolin-4-yl)phenyl 3-(dimethylsulfamoyl)benzoate]		55
64	1.38	188	CC(C)c1cnc2c(Cl)cccc2c1-c1cccc(OC(=O)c2ccc(S(=O)(=O)N(C)C)cc2)c1 [Example 34, 3-(8-chloro-3-isopropylquinolin-4-yl)phenyl 4-(dimethylsulfamoyl)benzoate]		78
5.6	0.53	8.7	CC(C)c1cnc2c(Cl)cccc2c1-c1cccc(OC(=O)c2cccc(CS(C)(=O)=O)c2)c1 [Example 35, 3-(8-chloro-3-isopropylauinolin-4-yl)phenyl 3-[(methylsulfonyl)methyl]benzoate]	11	
4.2	0.4	9.2	CNS(=O)(=O)c1cccc(C(=O)Oc2cccc(-c3c(C(C)C)cnc4c(Cl)cccc34)c2)c1 [Example 36, 3-(8-chloro-3-isopropylquinolin-4-yl)phenyl 3-(methylsulfamoyl)benzoate]		8
506	0.62	664	Cc1ccc(S(=O)(=O)N2CCOCC2)cc1C(=O)Oc1cccc(-c2c(C(C)C)cnc3c(Cl)cccc23)c1 [Example 38, 3-(8-chloro-3-isopropylquinolin-4-yl)phenyl 2-methyl-5-(morpholin-4-ylsulfonyl)benzoate]		44

SMILES	IC50 (human LXRβ) [nM]	EC50 (ABCG1 [1]) [nM]	IC50 (hLXRa) [nM]	EC50 (ABCG1 [2]) [nM]	EC50 (ABCG1 [2]; Fibroblast) [nM]
CC(C)c1cnc2c(Cl)cccc2c1-c1cccc(OC(=O)c2cccc(S(=O)(=O)N3CCOCC3)c2)c1 [Example 37, 3-(8-chloro-3-isopropylauinolin-4-yl)phenyl 3-(morpholin-4-ylsulfonyl)benzoate]	69	2.42	202	60	
